Test: Chemical stability test of dry solid powders (FTIR, photographs)
Format: physicochemical
Conditions: RH=79%
Experimental: The dry solid powders of SBSi and SBSiT obtained above are placed in a laboratory environment (RH=79%, temperature=24° C.) for 24 hours, and the chemical stabilities of SBSi and SBSiT are examined by Fourier transform infrared spectroscopy (FTIR). Referring to FIG. 1A, signals is centered at 1050 and 1612 cm^−1 corresponding to Vas(SO3^−) and Vb(N(CH3)^+), respectively, so as to ensure that all samples have a sulfobetaine moiety.

FTIR spectra / absorption intensity after storage for 24 hours compared with before storage (dry solid powder, temperature=24° C.): significantly lower
appearance of solid after storage for 24 hours (hygroscopic properties) (moisture environment, 24° C.): clearly deliquescent
Compound: CO[Si](CCC[N+](C)(C)CCCS(=O)(=O)[O-])(OC)OC [SBSi, sulfobetaine silane, reference compound]

Source: patent publication US20200010489A1, “ZWITTERIONIC SILATRANE-BASED MATERIAL AND ANTIFOULING SUBSTRATE CONTAINING SAME” (National Central University, priority 2018, published 2020)
